Our source for the IC50 values is patent US10894784B2, “Heteroarylbenzimidazole compounds” (BAYER PHARMA AKTIENGESELLSCHAFT, priority 2015, dated 2021).

In the assay the target is TBK1 (Homo sapiens (Human), UniProt Q9UHD2). Briefly: TBK1 low ATP kinase assay (in vitro assay 1). It is filed as biochemical. Conditions: in vitro assay 1, read-out: TBK1 low ATP kinase assay IC50.
TBK1, sequence (Q9UHD2 whole entry): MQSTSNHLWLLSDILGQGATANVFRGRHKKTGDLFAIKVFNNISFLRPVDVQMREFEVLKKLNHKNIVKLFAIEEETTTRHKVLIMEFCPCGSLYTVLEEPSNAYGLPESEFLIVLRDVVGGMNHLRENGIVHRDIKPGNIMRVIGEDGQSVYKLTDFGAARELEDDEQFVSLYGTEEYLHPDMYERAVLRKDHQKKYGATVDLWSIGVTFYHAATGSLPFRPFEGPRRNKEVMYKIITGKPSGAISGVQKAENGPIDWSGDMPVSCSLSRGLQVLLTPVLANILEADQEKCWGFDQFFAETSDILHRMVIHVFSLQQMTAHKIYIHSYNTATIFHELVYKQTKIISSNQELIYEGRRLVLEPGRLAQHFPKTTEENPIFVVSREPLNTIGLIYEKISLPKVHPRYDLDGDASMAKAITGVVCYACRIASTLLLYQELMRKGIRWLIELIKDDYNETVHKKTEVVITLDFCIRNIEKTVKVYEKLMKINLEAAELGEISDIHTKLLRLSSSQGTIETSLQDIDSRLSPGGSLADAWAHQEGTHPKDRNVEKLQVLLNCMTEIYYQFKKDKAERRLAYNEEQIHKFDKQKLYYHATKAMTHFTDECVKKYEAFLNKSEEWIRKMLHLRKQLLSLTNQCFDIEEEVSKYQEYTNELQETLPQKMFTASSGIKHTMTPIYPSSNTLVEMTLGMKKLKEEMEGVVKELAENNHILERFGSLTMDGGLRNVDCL
With `CC(c1ccnc(Nc2nc3ccc(-c4cc(Cl)ncn4)cc3[nH]2)c1)N1CCN(C(=O)OC(C)(C)C)CC1` (single isomer, unassigned) [Example 85.01, tert-Butyl 4-[(1R or 1S)-1-(2-{[6-(6-chloropyrimidin-4-yl)-1H-benzimidazol-2-yl]amino}pyridin-4-yl)ethyl]piperazine-1-carboxylate], the half-maximal inhibitory concentration (IC50) was found to be 5.7 nM.

On to `CC(c1ccnc(Nc2nc3ccc(-c4cnn(CC5CCC5)c4)c(F)c3[nH]2)c1)N1CCN(C(=O)C2CC2)CC1` (single isomer, unassigned) [Example 171.03, (4-{(1R or 1S)-1-[2-({6-[1-(cyclobutylmethyl)-1H-pyrazol-4-yl]-7-fluoro-1H-benzimidazol-2-yl}amino)pyridin-4-yl]ethyl}piperazin-1-yl)(cyclopropyl)methanone], for which the IC50 stood at 2.85 nM.

For the compound `CC(c1ccnc(Nc2nc3ccc(-c4cc(N(C)CC5CC5)ncn4)cc3[nH]2)c1)N1CCN(C(=O)C2(C(F)(F)F)CC2)CC1` (single isomer, unassigned) [Example 197.04, {4-[(1R or 1S)-1-{2-[(6-{6-[(cyclopropylmethyl)(methyl)amino]pyrimidin-4-yl}-1H-benzimidazol-2-yl)amino]pyridin-4-yl}ethyl]piperazin-1-yl}[1-(trifluoromethyl)cyclopropyl]methanone], the IC50 was 6.46 nM.

On to `Cc1cc(-c2ccc3nc(Nc4cc(CN5CCN(C(=O)CC6CC6)CC5)ccn4)[nH]c3c2)ncn1` [Example 30.01.03, 2-cyclopropyl-1-{4-[(2-{[6-(6-methylpyrimidin-4-yl)-1H-benzimidazol-2-yl]amino}pyridin-4-yl)methyl]piperazin-1-yl}ethanone], for which the concentration for half-maximal inhibition (IC50) is 16.9 nM.

As for `CCOc1nccc(-c2ccc3nc(Nc4cc(CN5CCN(C(=O)CC(F)(F)F)CC5)ccn4)[nH]c3c2)n1` [Example 26.01.03, 1-{4-[(2-{[6-(2-ethoxypyrimidin-4-yl)-1H-benzimidazol-2-yl]amino}pyridin-4-yl)methyl]piperazin-1-yl}-3,3,3-trifluoropropan-1-one], the IC50 was 13 nM.

`CCOc1cnc(C)cc1-c1ccc2nc(Nc3cc(CN4CCN(C(=O)C5CCC5)CC4)ccn3)[nH]c2c1` [Example 09.04, cyclobutyl{4-[(2-{[6-(5-ethoxy-2-methylpyridin-4-yl)-1H-benzimidazol-2-yl]amino}pyridin-4-yl)methyl]piperazin-1-yl}methanone]: the half-maximal inhibitory concentration (IC50) was 352 nM.

With `COc1cnc(C)cc1-c1ccc2nc(Nc3cc(CN4CCN(C(=O)CC(F)(F)F)CC4)ccn3)[nH]c2c1` [Example 07.02, 3,3,3-trifluoro-1-{4-[(2-{[6-(5-methoxy-2-methylpyridin-4-yl)-1H-benzimidazol-2-yl]amino}pyridin-4-yl)methyl]piperazin-1-yl}propan-1-one], the IC50 stood at 277 nM.

Regarding `COc1cc(-c2ccc3nc(Nc4cc(C(C)N5CCN(C(=O)C6CC6)CC5)ccn4)[nH]c3c2)ncn1` (single isomer, unassigned) [Example 34.03.02.B, cyclopropyl{4-[(1S or 1R)-1-(2-{[6-(6-methoxypyrimidin-4-yl)-1H-benzimidazol-2-yl]amino}pyridin-4-yl)ethyl]piperazin-1-yl}methanone], the IC50 stood at 7.22 nM.

With `CC(C)Nc1ncnc(-c2ccc3nc(Nc4cc(CN5CCN(C(=O)OC(C)(C)C)CC5)ccn4)[nH]c3c2)c1F` [Example 193.01, tert-butyl 4-{[2-({6-[5-fluoro-6-(propan-2-ylamino)pyrimidin-4-yl]-1H-benzimidazol-2-yl}amino)pyridin-4-yl]methyl}piperazine-1-carboxylate], the IC50 was 42.1 nM.

In the case of `CC1CC1Cn1cc(-c2ccc3nc(Nc4cc(C(C)N5CCN(C(=O)OC(C)(C)C)CC5)ccn4)[nH]c3c2)cn1` (single isomer, unassigned) [Example 56.01, tert-butyl 4-[(1R or 1S)-1-(2-{[6-(1-{[(1RS,2RS)-2-methylcyclopropyl]methyl}-1H-pyrazol-4-yl)-1H-benzimidazol-2-yl]amino}pyridin-4-yl)ethyl]piperazine-1-carboxylate], the IC50 is 16.5 nM.

Take `CCOc1ncnc(-c2ccc3nc(Nc4cc(CN5CCN(C(=O)CC(F)(F)F)CC5)ccn4)[nH]c3c2)c1OC` [Example 167.02, 1-{4-[(2-{[6-(6-ethoxy-5-methoxypyrimidin-4-yl)-1H-benzimidazol-2-yl]amino}pyridin-4-yl)methyl]piperazin-1-yl}-3,3,3-trifluoropropan-1-one]: the IC50 is 35 nM.

On to `CC(c1ccnc(Nc2nc3ccc(-c4cnn(CC5CC5(F)F)c4)c(F)c3[nH]2)c1)N1CCN(C(=O)CC(F)(F)F)CC1` (single isomer, unassigned) [Example 86.02, 1-{4-[(1R or 1S)-1-(2-{[6-(1-{[(1RS)-2,2-difluorocyclopropyl]methyl}-1H-pyrazol-4-yl)-7-fluoro-1H-benzimidazol-2-yl]amino}pyridin-4-yl)ethyl]piperazin-1-yl}-3,3,3-trifluoropropan-1-one], for which the IC50 came to 2.1 nM.

For the compound `CC(c1ccnc(Nc2nc3ccc(-c4cnn(CC(F)F)c4)cc3[nH]2)c1)N1CCN(C(=O)C2CC2)CC1` (single isomer, unassigned) [Example 87.02, cyclopropyl(4-{(1R or 1S)-1-[2-({6-[1-(2,2-difluoroethyl)-1H-pyrazol-4-yl]-1H-benzimidazol-2-yl}amino)pyridin-4-yl]ethyl}piperazin-1-yl)methanone], the IC50 amounted to 2 nM.

In the case of `COc1ccccc1N1CCN(Cc2ccnc(Nc3nc4ccc(-c5nc(C)no5)cc4[nH]3)c2)CC1` [Example 101.07, N-(4-{[4-(2-methoxyphenyl)piperazin-1-yl]methyl}pyridin-2-yl)-6-(3-methyl-1,2,4-oxadiazol-5-yl)-1H-benzimidazol-2-amine], the IC50 was 170 nM.

Take `CC(C)Oc1cc(-c2ccc3nc(Nc4cc(CN5CCN(C(=O)CC(F)(F)F)CC5)ccn4)[nH]c3c2)ncn1` [Example 160.02, 3,3,3-trifluoro-1-(4-{[2-({6-[6-(propan-2-yloxy)pyrimidin-4-yl]-1H-benzimidazol-2-yl}amino)pyridin-4-yl]methyl}piperazin-1-yl)propan-1-one]: the IC50 is 13 nM.

For the compound `CN(CC(F)(F)F)c1cc(-c2ccc3nc(Nc4cc(CN5CCN(C(=O)CC(F)(F)F)CC5)ccn4)[nH]c3c2)ncn1` [Example 146.02, 3,3,3-trifluoro-1-[4-({2-[(6-{6-[methyl(2,2,2-trifluoroethyl)amino]pyrimidin-4-yl}-1H-benzimidazol-2-yl)amino]pyridin-4-yl}methyl)piperazin-1-yl]propan-1-one], the IC50 stood at 9.8 nM.

For `CC(c1ccnc(Nc2nc3ccc(-c4cnn(CC5CC5(F)F)c4)c(F)c3[nH]2)c1)N1CCN(C(=O)C2CC2)CC1` (single isomer, unassigned) [Example 86.03, cyclopropyl{4-[(1R or 1S)-1-(2-{[6-(1-{[(1RS)-2,2-difluorocyclopropyl]methyl}-1H-pyrazol-4-yl)-7-fluoro-1H-benzimidazol-2-yl]amino}pyridin-4-yl)ethyl]piperazin-1-yl}methanone], the IC50 turned out to be 1.5 nM.

Consider `Cc1cc(-c2ccc3nc(Nc4cc(C(C)N5CCN(C(=O)C6CCC6)CC5)ccn4)[nH]c3c2)ncn1` (racemic) [Example 30.02.02, (rac)-cyclobutyl{4-[1-(2-{[6-(6-methylpyrimidin-4-yl)-1H-benzimidazol-2-yl]amino}pyridin-4-yl)ethyl]piperazin-1-yl}methanone], for which the IC50 came out at 7.86 nM.

As for `Cc1noc(-c2ccc3nc(Nc4cc(CN5CCN(c6ncncn6)CC5)ccn4)[nH]c3c2)n1` [Example 101.27, 6-(3-methyl-1,2,4-oxadiazol-5-yl)-N-(4-{[4-(1,3,5-triazin-2-yl)piperazin-1-yl]methyl}pyridin-2-yl)-1H-benzimidazol-2-amine], the IC50 is 350 nM.

In the case of `COc1cnccc1-c1ccc2nc(Nc3cc(CN4CCN(C(=O)C5CC5)CC4)ccn3)[nH]c2c1` [Example 04.03, cyclopropyl{4-[(2-{[6-(3-methoxypyridin-4-yl)-1H-benzimidazol-2-yl]amino}pyridin-4-yl)methyl]piperazin-1-yl}methanone], the IC50 worked out at 19.3 nM.

Regarding `CCOc1ncnc(-c2ccc3nc(Nc4cc(CN5CCN(C(=O)OC(C)(C)C)CC5)ccn4)[nH]c3c2)c1OC` [Example 167.01, tert-butyl 4-[(2-{[6-(6-ethoxy-5-methoxypyrimidin-4-yl)-1H-benzimidazol-2-yl]amino}pyridin-4-yl)methyl]piperazine-1-carboxylate], the IC50 came to 222 nM.

With `CC(c1ccnc(Nc2nc3ccc(-c4cc(N5CCCC5)ncn4)cc3[nH]2)c1)N1CCN(C(=O)C(C)(C)O)CC1` (single isomer, unassigned) [Example 117.07, 2-hydroxy-2-methyl-1-(4-{(1R or 1S)-1-[2-({6-[6-(pyrrolidin-1-yl)pyrimidin-4-yl]-1H-benzimidazol-2-yl}amino)pyridin-4-yl]ethyl}piperazin-1-yl)propan-1-one], the IC50 amounted to 2.7 nM.

For `Nc1cc(-c2ccc3nc(Nc4cc(CN5CCN(C(=O)C6CC6)CC5)ccn4)[nH]c3c2)ccn1` [Example 138.03, {4-[(2-{[6-(2-aminopyridin-4-yl)-1H-benzimidazol-2-yl]amino}pyridin-4-yl)methyl]piperazin-1-yl}(cyclopropyl)methanone], the IC50 came out at 4.3 nM.

For `COc1c(-c2ccc3nc(Nc4cc(C(C)N5CCN(C(=O)OC(C)(C)C)CC5)ccn4)[nH]c3c2)ncnc1N(C)C` (single isomer, unassigned) [Example 107.02.01, tert-butyl 4-{(1R or 1S)-1-[2-({6-[6-(dimethylamino)-5-methoxypyrimidin-4-yl]-1H-benzimidazol-2-yl}amino)pyridin-4-yl]ethyl}piperazine-1-carboxylate], the IC50 came to 21 nM.

For the compound `CN(c1cc(-c2ccc3nc(Nc4cc(CN5CCN(C(=O)OC(C)(C)C)CC5)ccn4)[nH]c3c2)ncn1)C1CC1` [Example 157.01, tert-butyl 4-({2-[(6-{6-[cyclopropyl(methyl)amino]pyrimidin-4-yl}-1H-benzimidazol-2-yl)amino]pyridin-4-yl}methyl)piperazine-1-carboxylate], the IC50 was 25 nM.
